From paper PMC9532703, “A novel small molecule RK-019 inhibits FGFR2-amplification gastric cancer cell proliferation and induces apoptosis in vitro and in vivo” (Frontiers in Pharmacology, 2022)
“And” between values parts separate entries of the source, which are not always exact repeats. Identical values can stand only once.

Experiments:
[1] = molecular target: T1, FGFR1 (Homo sapiens, UniProt P11362); test: Kinase inhibition IC50 assay (Eurofins); type: biochemical
T1 construct: purchased Eurofins Discovery Services (Dundee, United Kingdom)
T1 sequence (P11362 22-822): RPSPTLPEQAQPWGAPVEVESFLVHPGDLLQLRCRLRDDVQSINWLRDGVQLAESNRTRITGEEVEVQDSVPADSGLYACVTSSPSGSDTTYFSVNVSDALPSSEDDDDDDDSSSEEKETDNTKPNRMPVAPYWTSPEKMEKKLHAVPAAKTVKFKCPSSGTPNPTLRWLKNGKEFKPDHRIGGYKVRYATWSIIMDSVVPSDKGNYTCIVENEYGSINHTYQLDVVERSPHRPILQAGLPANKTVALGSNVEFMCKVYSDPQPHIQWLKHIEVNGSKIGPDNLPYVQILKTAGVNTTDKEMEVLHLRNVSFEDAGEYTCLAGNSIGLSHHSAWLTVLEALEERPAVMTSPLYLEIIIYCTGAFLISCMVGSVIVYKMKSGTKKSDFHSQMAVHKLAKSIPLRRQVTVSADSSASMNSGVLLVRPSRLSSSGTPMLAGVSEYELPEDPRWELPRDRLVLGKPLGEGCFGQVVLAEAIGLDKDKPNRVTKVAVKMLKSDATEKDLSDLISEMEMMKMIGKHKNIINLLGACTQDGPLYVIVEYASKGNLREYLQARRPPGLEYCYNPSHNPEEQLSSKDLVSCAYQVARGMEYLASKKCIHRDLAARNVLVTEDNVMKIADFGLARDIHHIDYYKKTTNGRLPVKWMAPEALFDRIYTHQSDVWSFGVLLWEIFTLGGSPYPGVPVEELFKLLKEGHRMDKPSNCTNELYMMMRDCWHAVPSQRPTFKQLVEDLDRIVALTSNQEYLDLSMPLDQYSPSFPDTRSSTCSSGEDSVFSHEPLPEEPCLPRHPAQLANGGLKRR
Experimental: (§1) Median-inhibitory concentration (IC50) and inhibition ratio of kinases by RK-019 was assessed by Eurofins Discovery Services (Dundee, United Kingdom) using the ATP-site competition binding assay in vitro. Firstly, gradient concentration of RK-019 against FGFRs, including FGFR1, FGFR2, FGFR3, and FGFR4, were tested. IC50 value was calculate by the GraphPad Prism software (v8.4.3, GraphPad Software, California, United States). Then, to measure the selectivity prolife of RK-019, a panel of 422 recombinant human kinases was screened at a concentration of 1 µM RK-019. Kinase MAP was drawn by webtools from Cell Signaling Technology, Inc. (www.cellsignal.com).
(§2) All data were analyzed by the GraphPad Prism 8.4.3 (GraphPad Software, California, United States), and was shown as mean value ±SD or SEM, details will be illustrated in the figure legends. Dose-effect curve analysis (IC50 calculation) was performed by the Graphpad Prism software. First, concentration value was converted to log value, followed by non-linear regression analyze which is log(inhibitor) vs. normalized response—Variable slope, was performed to calculate the IC50 values. The statistically significant p values were calculated by student’s t-test or two-way ANOVA and were shown in graphics which were labeled as follows: *p < 0.05; **p < 0.01; ***p < 0.001.

[2] = molecular target: T2, FGFR2 (Homo sapiens, UniProt P21802); test: Kinase inhibition IC50 assay (Eurofins); type: biochemical
T2 construct: purchased Eurofins Discovery Services (Dundee, United Kingdom)
T2 sequence (P21802 22-821): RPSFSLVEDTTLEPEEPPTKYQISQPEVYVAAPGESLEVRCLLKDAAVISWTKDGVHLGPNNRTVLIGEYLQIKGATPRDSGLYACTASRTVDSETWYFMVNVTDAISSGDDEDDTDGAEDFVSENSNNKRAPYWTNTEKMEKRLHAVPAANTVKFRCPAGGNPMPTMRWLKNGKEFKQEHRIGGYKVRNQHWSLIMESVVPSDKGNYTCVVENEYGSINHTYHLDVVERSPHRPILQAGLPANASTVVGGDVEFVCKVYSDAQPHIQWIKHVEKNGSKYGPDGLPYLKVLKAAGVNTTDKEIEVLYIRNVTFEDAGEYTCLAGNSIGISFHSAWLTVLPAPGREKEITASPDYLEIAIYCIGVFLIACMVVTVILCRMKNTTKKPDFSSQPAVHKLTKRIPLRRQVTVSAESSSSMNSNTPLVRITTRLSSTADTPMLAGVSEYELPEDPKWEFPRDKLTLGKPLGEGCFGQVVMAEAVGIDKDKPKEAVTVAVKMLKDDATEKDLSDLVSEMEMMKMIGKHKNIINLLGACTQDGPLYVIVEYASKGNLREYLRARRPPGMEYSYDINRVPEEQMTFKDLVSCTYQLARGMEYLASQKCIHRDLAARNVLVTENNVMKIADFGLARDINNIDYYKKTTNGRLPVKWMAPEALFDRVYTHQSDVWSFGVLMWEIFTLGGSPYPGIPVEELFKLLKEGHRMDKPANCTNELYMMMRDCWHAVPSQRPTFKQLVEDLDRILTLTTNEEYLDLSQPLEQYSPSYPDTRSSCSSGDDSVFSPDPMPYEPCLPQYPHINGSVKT
Experimental: as §1, §2

[3] = molecular target: T3, FGFR3 (Homo sapiens, UniProt P22607); test: Kinase inhibition IC50 assay (Eurofins); type: biochemical
T3 construct: purchased Eurofins Discovery Services (Dundee, United Kingdom)
T3 sequence (P22607 23-806): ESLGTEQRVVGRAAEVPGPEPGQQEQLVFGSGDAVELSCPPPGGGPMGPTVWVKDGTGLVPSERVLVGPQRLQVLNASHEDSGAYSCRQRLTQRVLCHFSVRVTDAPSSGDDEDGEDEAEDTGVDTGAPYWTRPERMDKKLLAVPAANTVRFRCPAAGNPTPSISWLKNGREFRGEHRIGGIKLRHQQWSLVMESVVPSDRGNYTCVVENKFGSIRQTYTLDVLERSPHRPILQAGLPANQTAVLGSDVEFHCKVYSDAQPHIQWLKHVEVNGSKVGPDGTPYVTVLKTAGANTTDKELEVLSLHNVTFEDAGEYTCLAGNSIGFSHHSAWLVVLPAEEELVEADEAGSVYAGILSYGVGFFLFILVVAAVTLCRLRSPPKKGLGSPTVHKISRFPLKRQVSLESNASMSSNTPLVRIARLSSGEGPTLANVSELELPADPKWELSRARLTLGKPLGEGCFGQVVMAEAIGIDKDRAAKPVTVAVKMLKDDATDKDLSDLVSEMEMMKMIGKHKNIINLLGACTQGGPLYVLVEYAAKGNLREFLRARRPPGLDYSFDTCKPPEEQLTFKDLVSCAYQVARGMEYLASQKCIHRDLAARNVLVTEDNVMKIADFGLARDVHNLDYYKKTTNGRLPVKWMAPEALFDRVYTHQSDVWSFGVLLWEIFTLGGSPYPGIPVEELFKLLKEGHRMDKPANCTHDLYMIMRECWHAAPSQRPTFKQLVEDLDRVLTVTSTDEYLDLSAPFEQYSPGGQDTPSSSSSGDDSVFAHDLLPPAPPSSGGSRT
Experimental: as §1, §2

[4] = molecular target: T4, FGFR4 (Homo sapiens, UniProt P22455); test: Kinase inhibition IC50 assay (Eurofins); type: biochemical
T4 construct: purchased Eurofins Discovery Services (Dundee, United Kingdom)
T4 sequence (P22455 22-802): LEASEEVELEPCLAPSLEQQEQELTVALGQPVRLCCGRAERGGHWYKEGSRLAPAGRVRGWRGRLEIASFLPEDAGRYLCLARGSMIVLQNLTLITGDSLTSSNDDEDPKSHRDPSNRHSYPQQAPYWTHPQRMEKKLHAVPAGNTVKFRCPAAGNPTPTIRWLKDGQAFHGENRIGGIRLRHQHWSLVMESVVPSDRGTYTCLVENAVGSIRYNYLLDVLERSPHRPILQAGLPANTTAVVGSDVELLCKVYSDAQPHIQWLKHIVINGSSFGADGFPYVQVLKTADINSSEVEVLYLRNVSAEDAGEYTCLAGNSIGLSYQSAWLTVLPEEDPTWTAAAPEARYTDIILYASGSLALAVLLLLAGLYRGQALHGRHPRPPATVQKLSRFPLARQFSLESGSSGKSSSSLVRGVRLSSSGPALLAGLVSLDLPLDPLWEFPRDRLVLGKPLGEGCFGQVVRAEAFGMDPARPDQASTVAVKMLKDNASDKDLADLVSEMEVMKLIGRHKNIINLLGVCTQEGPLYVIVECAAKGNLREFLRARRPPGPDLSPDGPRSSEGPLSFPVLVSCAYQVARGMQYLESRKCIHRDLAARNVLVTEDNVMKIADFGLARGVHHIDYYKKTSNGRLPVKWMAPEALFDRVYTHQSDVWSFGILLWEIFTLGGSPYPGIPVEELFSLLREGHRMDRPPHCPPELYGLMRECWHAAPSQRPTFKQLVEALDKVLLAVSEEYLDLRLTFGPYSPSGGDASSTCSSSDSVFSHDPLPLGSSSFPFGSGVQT
Experimental: as §1, §2

[5] = tested on: FGFR2 phosphorylation and downstream proteins in KATO III cells; test: Western blot of FGFR signal proteins; type: cell-based; conditions: 24 h
Experimental: (§3) The cells treated with RK-019 at indicated concentration for 24 h were harvested and lysed in 1× RIPA buffer (20e188, MilliporeSigma, Burlington, MA, United States), which contained protease inhibitor cocktail (B14001, Bimake, Houston, TX, United States) and phosphatase inhibitor cocktail (B15001, Bimake), for 30 min and equalized by concentration of the total protein before loading. Using sodium dodecyl sulphate - polyacrylamide gel electrophoresis (SDS-PAGE) to separate the protein sample and transfer to PVDF membranes (ISEQ00010, MilliporeSigma). The membranes were incubated with relevant primary antibody and corresponding HRP-labeled secondary antibody. Then, chemiluminescence was used to detect target bands. ImageJ software were used to make the gradation analysis.
(§4) In western blot, results analysis of relative phosphorylation quantification level, data were firstly calculated according to the following formular: Protein Relative phosphorylation data = Gp/Gup. Gp means the gradation level of target phosphorylation protein band and Gup means the gradation level of target total protein band. Then, the relative phosphorylation level can be calculated by the following formular: Protein Relative expression level = Pt/Pc ×100%. Pt means the relative phosphorylation data or target group and Pc means the relative phosphorylation data of control group.

[6] = tested on: FGFR2 phosphorylation and downstream proteins in SNU-16 cells; test: Western blot of FGFR signal proteins; type: cell-based
Experimental: as §3, §4

In the case of `COc1cc(OC)cc(N(CCN[C@H](C)CO)c2ccc3ncc(-c4cnn(C)c4)c(=O)n3c2)c1` [RK-019, (R)-7-((3,5-dimethoxyphenyl) (2-((1-hydroxypropan-2-yl)amino)ethyl)amino)-3-(1-methyl-1H-pyrazol-4-yl)-4H-pyrido [1,2-a]pyrimidin-4-one], the IC50 [1] is reported as 8.9 nM and 9.1 nM, the IC50 [2] is reported as 4.6 nM and the IC50 [3] is reported as 26.3 nM. The IC50 [4] was 40.7 nM, the “protein expression level of phosphorylated FGFR2 T653/T654” value ([5]; KATO III, 0.1, 1, 5, 10, and 100 nM) was “decreased” and the “AKT and Erk phosphorylation levels” value ([5]; KATO III) was “decreased”. The “FRS2 and PLCγ phosphorylation levels” value ([5]; KATO III) was “significantly decreased”, the “protein expression level of phosphorylated FGFR2 T653/T654” value ([6]; SNU-16, 0.1, 1, 5, 10, and 100 nM, 24 h) was “decreased” and the “AKT and Erk phosphorylation levels” value ([6]; SNU-16, 24 h) was “decreased”. The “FRS2 and PLCγ phosphorylation levels” value ([6]; SNU-16, 24 h) was “significantly decreased”.
